Test results from patent US20080274522A1, “METHOD FOR THE PRODUCTION OF 2-BUTANONE” (priority 2007, published 2008).

What was measured:
[1] = test system: E. coli strain BW25113; experiment: Survival of E. coli in MEK shock; assay type: cell-based, Escherichia coli; conditions: for % Survival at 28° C. / % Survival at 37° C.: 30 min, average of duplicate experiments
Experimental: Survival of MEK shock was tested at exposure temperatures of 28° C. or 37° C.

[2] = test system: Lactobacillus plantarum PN0512; experiment: Growth of L. plantarum PN0512 in the presence of butanols at different temperatures (OD600); assay type: cell-based; design: key to Growth of L. plantarum PN0512 in the presence of 1-butanol / Growth of L. plantarum PN0512 in the presence of isobutanol / Growth of L. plantarum PN0512 in the presence of 2-butanol: +: growth observed as an increase in OD600.; −: no growth observed, i.e. no change in OD600
Experimental: Tolerance levels of bacterial strain Lactobacillus plantarum PN0512 (ATCC # PTA-7727) were determined at 25° C., 30° C. and 37° C. as follows. The strain was cultured in S30L medium (i.e., 10 mM ammonium sulfate, 5 mM potassium phosphate buffer, pH 7.0, 50 mM MOPS, pH 7.0, 2 mM MgCl2, 0.7 mM CaCl2, 50 μM MnCl2, 1 μM FeCl3, 1 μM ZnCl2, 1.72 μM CuCl2, 2.53 μM COCl2, 2.42 μM Na2MoO4, 2 μM thiamine hydrochloride, 10 mM glucose, and 0.2% yeast extract). An overnight culture in the absence of any test compound was started in 15 mL of the S30L medium in a 150 mL flask, with incubation at 37° C. in a shaking water bath. The next morning, the overnight culture was diluted into three 500 mL flasks containing 150 mL of fresh medium to an initial OD600 of about 0.08. Each flask was incubated in a shaking water bath, one each at 25° C., 30° C. and 37° C. Each large culture was allowed to acclimate at the test temperature for at least 0.5 h. […] Growth was followed by measuring OD600 for six hours after addition of the compounds.

[3] = test system: glycerol dehydratase; experiment: Butanediol dehydratase activity of glycerol dehydratase; assay type: biochemical, Klebsiella pneumoniae; conditions: 10 mM meso-2,3-butanediol, 12 μM coenzyme B12, pH 8.2, 37° C., crude cell free extract of KLP23/pSYCO12
Text: Glycerol dehydratase (E.C. 4.2.1.30) and diol dehydratase (E.C. 4.2.1.28), while structurally related, are often distinguished in the art based on various differences that include substrate specificity. […] The recombinant E. coli strain KLP23/pSYCO12, comprising Klebsiella pneumoniae genes encoding the multiple subunits of glycerol dehydratase (alpha: SEQ ID NO:145 (coding region) and 146 (protein); beta: SEQ ID NO: 147 (coding region) and 148 (protein); and gamma: SEQ ID NO: 149 (coding region) and 150 (protein)) and Klebsiella pneumoniae genes encoding the multiple subunits of glycerol dehydratase reactivase (large subunit, SEQ ID NO: 151 (coding region) and 152 (protein); and small subunit, SEQ ID NO: 153 (coding region) and 154 (protein)), is described in Emptage et al. U.S. Pat. No. 6,514,733 and in WO 2003089621, which are herein incorporated by reference. A crude, cell free extract of KLP23/pSYCO12 was prepared by methods known to one skilled in the art. […] The formation of 2-butanone was monitored by HPLC (Shodex SH-1011 column and SH-G guard column with refractive index detection; 0.01 M H2SO4 as the mobile phase at a flow rate of 0.5 mL/min and a column temperature of 50° C.; 2-butanone retention time=40.2 min). The rate of 2-butanone formation by the glycerol dehydratase preparation was determined to be 0.4 nmol/min/mg of crude protein.

CCC(C)=O [MEK, 2-butanone]
Concentration with full survival ([1]; 28° C.): 6 % w/v | Concentration with full survival ([1]; 37° C.): 4 % w/v | Concentration with no survival ([1]; 37° C.): 6 % w/v | % Survival at 28° C. ([1]; MEK 4 % w/v): 100% | % Survival at 37° C. ([1]; MEK 4 % w/v): 100% | % Survival at 28° C. ([1]; MEK 6 % w/v): 100% | % Survival at 37° C. ([1]; MEK 6 % w/v): 0% | % Survival at 28° C. ([1]; MEK 8 % w/v): 0.002% | % Survival at 37° C. ([1]; MEK 8 % w/v): 0%

CC(C)CO [isobutanol]
Growth of L. plantarum PN0512 in the presence of isobutanol ([2]; 0.5 % w/v, 37° C.): + | Growth of L. plantarum PN0512 in the presence of isobutanol ([2]; 1.0 % w/v, 37° C.): + | Growth of L. plantarum PN0512 in the presence of isobutanol ([2]; 1.5 % w/v, 25° C.): + | Growth of L. plantarum PN0512 in the presence of isobutanol ([2]; 1.5 % w/v, 30° C.): + | Growth of L. plantarum PN0512 in the presence of isobutanol ([2]; 1.5 % w/v, 37° C.): + | Growth of L. plantarum PN0512 in the presence of isobutanol ([2]; 1.6 % w/v, 37° C.): + | Growth of L. plantarum PN0512 in the presence of isobutanol ([2]; 1.8 % w/v, 37° C.): + | Growth of L. plantarum PN0512 in the presence of isobutanol ([2]; 2.0 % w/v, 25° C.): + | Growth of L. plantarum PN0512 in the presence of isobutanol ([2]; 2.0 % w/v, 30° C.): + | Growth of L. plantarum PN0512 in the presence of isobutanol ([2]; 2.0 % w/v, 37° C.): + | Growth of L. plantarum PN0512 in the presence of isobutanol ([2]; 2.1 % w/v, 37° C.): + | Growth of L. plantarum PN0512 in the presence of isobutanol ([2]; 2.3 % w/v, 37° C.): + | Growth of L. plantarum PN0512 in the presence of isobutanol ([2]; 2.4 % w/v, 25° C.): + | Growth of L. plantarum PN0512 in the presence of isobutanol ([2]; 2.4 % w/v, 30° C.): + | Growth of L. plantarum PN0512 in the presence of isobutanol ([2]; 2.4 % w/v, 37° C.): + | Growth of L. plantarum PN0512 in the presence of isobutanol ([2]; 2.7 % w/v, 25° C.): + | Growth of L. plantarum PN0512 in the presence of isobutanol ([2]; 2.7 % w/v, 30° C.): + | Growth of L. plantarum PN0512 in the presence of isobutanol ([2]; 2.7 % w/v, 37° C.): + | Growth of L. plantarum PN0512 in the presence of isobutanol ([2]; 2.9 % w/v, 25° C.): + | Growth of L. plantarum PN0512 in the presence of isobutanol ([2]; 2.9 % w/v, 30° C.): + | Growth of L. plantarum PN0512 in the presence of isobutanol ([2]; 2.9 % w/v, 37° C.): + | Growth of L. plantarum PN0512 in the presence of isobutanol ([2]; 3.1 % w/v, 25° C.): + | Growth of L. plantarum PN0512 in the presence of isobutanol ([2]; 3.1 % w/v, 30° C.): + | Growth of L. plantarum PN0512 in the presence of isobutanol ([2]; 3.1 % w/v, 37° C.): + | Growth of L. plantarum PN0512 in the presence of isobutanol ([2]; 3.3 % w/v, 25° C.): + | Growth of L. plantarum PN0512 in the presence of isobutanol ([2]; 3.3 % w/v, 30° C.): −^2 | Growth of L. plantarum PN0512 in the presence of isobutanol ([2]; 3.4 % w/v, 37° C.): − | Growth of L. plantarum PN0512 in the presence of isobutanol ([2]; 3.6 % w/v, 25° C.): − | Growth of L. plantarum PN0512 in the presence of isobutanol ([2]; 3.8 % w/v, 37° C.): − | Growth of L. plantarum PN0512 in the presence of isobutanol ([2]; 4.3 % w/v, 37° C.): − | Concentration in which growth was observed ([2]; 25° C.): 3.5% | Concentration in which growth was not observed ([2]; 30° C.): 3.3% | Concentration in which growth was observed ([2]; 30° C.): 3.1% | Concentration in which growth was not observed ([2]; 37° C.): 3.4% | Concentration in which growth was observed ([2]; 37° C.): 3.1% | Growth of L. plantarum PN0512 in the presence of isobutanol ([2]; […] w/v, 25° C.): + | Growth of L. plantarum PN0512 in the presence of isobutanol ([2]; […] w/v, 37° C.): +

CC(O)C(C)O (stereo not drawn) [meso-2,3-butanediol]
Rate of 2-butanone formation [3]: 0.4 nmol/min/mg of crude protein
